Data on 23 compounds can be found in PubChem BioAssay (NCI).

Test systems include M14 melanoma; EKVX NSCLC; MOLT-4 leukemia; IGROV1 ovarian; CCRF-CEM leukemia; SK-OV-3 ovarian; MDA-MB-231 breast; HT29 colon; RPMI-8226 leukemia; A498 renal.
Common to all, as to assay: DTP human tumour cell line panel, 48 h

“And” between values parts separate entries of the source, which are not always exact repeats. Identical values can stand only once.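 Compound exposure: 48 hours, 5 concentrations, 96-well plates. Abbreviation: GI50, concentration required for 50% inhibition of growth. TGI is the concentration that stops growth completely.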 Where only a bound is given, the exact number is not on record here.

In the case of `COc1ccc(-c2c(/C=N/OCC(=O)O)c3sc4ccccc4n3c2/C=N/OCC(=O)O)cc1`, the concentration for total growth inhibition (TGI) with M14 melanoma, in the assay on EKVX NSCLC, in the assay with MOLT-4 leukemia, in the assay on IGROV1 ovarian, in the assay with CCRF-CEM leukemia and in the assay on SK-OV-3 ovarian was > 50 µM each time. Besides, the concentration for total growth inhibition (TGI) with MDA-MB-231 breast and with HT29 colon was > 50 µM throughout.

For the compound `Cc1c2cc[n+](C)cc2c(C)c2c1[nH]c1ccc(OCC(F)(F)F)cc12`, the GI50 – broadly, the concentration at which growth is held to half of that of the control – in the assay on RPMI-8226 leukemia is 4.27 µM and 23.7 µM; with M14 melanoma, 11.6 µM and > 94.3 µM; in the assay on A498 renal, 47 µM and > 100 µM. Besides, the total growth inhibition concentration (TGI) (commonly the concentration giving total growth inhibition) in the assay with RPMI-8226 leukemia is 43 µM and > 88 µM; in the assay with M14 melanoma, > 100 µM; with EKVX NSCLC it was 82.9 µM; in the assay with A498 renal, > 100 µM; in the assay on MOLT-4 leukemia, 11.1 µM and > 55.9 µM; with IGROV1 ovarian, > 100 µM. Further, the concentration for total growth inhibition (TGI) is > 100 µM with CCRF-CEM leukemia; > 100 µM in the assay with SK-OV-3 ovarian; 8.14 µM and > 55.1 µM in the assay on HT29 colon.

Take `CCCCn1c(-c2ccccc2)cs/c1=N\NC(=O)Cn1c(C)nc2ccccc21`: the concentration for total growth inhibition (TGI) was > 100 µM in the assay on RPMI-8226 leukemia; > 100 µM in the assay with M14 melanoma; > 100 µM with EKVX NSCLC; > 100 µM with A498 renal; 57.4 µM in the assay with MOLT-4 leukemia; > 100 µM in the assay with IGROV1 ovarian. In addition, the values for the total growth inhibition concentration (TGI) in the assay on CCRF-CEM leukemia, in the assay on SK-OV-3 ovarian and in the assay with HT29 colon were 99.4 µM, > 100 µM and > 100 µM, respectively.

On to `C=C1C(=O)OC2C[C@@]3(C)CCCC(=C)C3CC12` (stereo not given in full), for which the TGI in the assay with M14 melanoma was 20.6 µM; in the assay with EKVX NSCLC, 31.5 µM; with A498 renal, 19.2 µM; in the assay with IGROV1 ovarian, 33.3 µM; in the assay on CCRF-CEM leukemia it was > 100 µM; in the assay with SK-OV-3 ovarian, 33.7 µM. This compound had a TGI in the assay on HT29 colon of 24 µM.

As to `COc1ccc(-c2nc(-c3cnccn3)n(C/C=C/c3ccccc3)n2)cc1`, the total growth inhibition concentration (TGI) in the assay on RPMI-8226 leukemia, in the assay on M14 melanoma, with MOLT-4 leukemia, in the assay on IGROV1 ovarian, with CCRF-CEM leukemia and with SK-OV-3 ovarian was > 100 µM each time. In addition, the total growth inhibition concentration (TGI) with MDA-MB-231 breast and with HT29 colon was > 100 µM throughout.

Turning to `COc1ccc(Cn2c(=O)c(OS(=O)(=O)C(F)(F)F)c(C)c3cc4ccccc4cc32)cc1`, the TGI with M14 melanoma, with EKVX NSCLC, in the assay with MOLT-4 leukemia, in the assay with IGROV1 ovarian, with CCRF-CEM leukemia and with SK-OV-3 ovarian was > 100 µM each time. Moreover, the TGI in the assay with MDA-MB-231 breast and in the assay on HT29 colon was > 100 µM in each case.

For the compound `O=c1[nH]c(=S)[nH]c2c1CCCN2`, the TGI in the assay on RPMI-8226 leukemia, in the assay on M14 melanoma, in the assay with EKVX NSCLC, in the assay with MOLT-4 leukemia, in the assay with IGROV1 ovarian and with CCRF-CEM leukemia was > 100 µM each time. Besides, the total growth inhibition concentration (TGI) with SK-OV-3 ovarian and in the assay on HT29 colon was > 100 µM each time.

As for `COc1cc(/C=C2\N=C(c3ccccc3)N(c3cc4cc(Sc5ccccc5)ccc4[nH]3)C2=O)ccc1O`, the TGI with M14 melanoma, with EKVX NSCLC, in the assay on MOLT-4 leukemia, in the assay with IGROV1 ovarian, with CCRF-CEM leukemia and in the assay on HT29 colon was > 50 µM in each case.

`C/C(=N/NC(N)=S)C(CN1CCOCC1)C(C1=C(O)c2ccccc2OC1)c1ccccc1` (stereo not given): the total growth inhibition concentration (TGI) with RPMI-8226 leukemia, in the assay on M14 melanoma, in the assay on EKVX NSCLC, with A498 renal, in the assay with MOLT-4 leukemia and in the assay on IGROV1 ovarian was > 100 µM each time. For the same compound, the TGI in the assay with CCRF-CEM leukemia, in the assay with SK-OV-3 ovarian and with HT29 colon was > 100 µM throughout.

As to `COc1cccc(C2C(C#N)=C(N)Oc3cc(OCCCCCC[P+](c4ccccc4)(c4ccccc4)c4ccccc4)ccc32)c1` (stereo not given), the concentration for 50% growth inhibition (GI50) with RPMI-8226 leukemia is 0.194 µM; in the assay with A498 renal, 1.03 µM; in the assay with MOLT-4 leukemia it was 1.22 µM; in the assay with CCRF-CEM leukemia, 0.596 µM; with SK-OV-3 ovarian, 1.41 µM; in the assay on HT29 colon it was 0.613 µM. Moreover, the total growth inhibition concentration (TGI) came to 0.659 µM in the assay on RPMI-8226 leukemia; 2.45 µM in the assay with A498 renal; 3.96 µM in the assay with MOLT-4 leukemia; 3.36 µM in the assay with CCRF-CEM leukemia; 3.26 µM with SK-OV-3 ovarian; 3.67 µM in the assay on HT29 colon.

Take `C/C(N=NS(=O)(=O)c1c(C)cc(C)cc1C)=C1\C=CC=CN1O`: the TGI with RPMI-8226 leukemia, in the assay on M14 melanoma, in the assay with EKVX NSCLC, in the assay on A498 renal, with MOLT-4 leukemia and in the assay with IGROV1 ovarian was > 100 µM throughout. Further, the total growth inhibition concentration (TGI) in the assay with CCRF-CEM leukemia, in the assay with SK-OV-3 ovarian and in the assay on HT29 colon was > 100 µM in each case.

As to `COC(=O)c1c(CC(=O)OC(C)C)cc2n(c1=O)Cc1c-2nc2ccccc2c1OC`, the TGI in the assay with RPMI-8226 leukemia, in the assay with M14 melanoma, in the assay with EKVX NSCLC, in the assay on A498 renal, in the assay with MOLT-4 leukemia and with IGROV1 ovarian was > 100 µM throughout. Also, the TGI with CCRF-CEM leukemia, with SK-OV-3 ovarian and with HT29 colon was > 100 µM each time.

`Cc1c(C(=O)O)sc2nc[nH]c(=O)c12`: the TGI with RPMI-8226 leukemia, with M14 melanoma, in the assay with EKVX NSCLC, with MOLT-4 leukemia, with IGROV1 ovarian and in the assay on SK-OV-3 ovarian was > 100 µM throughout. The total growth inhibition concentration (TGI) in the assay with MDA-MB-231 breast and in the assay on HT29 colon was > 100 µM in each case.

`O=Cn1c2ccccc2c2ccccc21`: the TGI in the assay with RPMI-8226 leukemia, in the assay on M14 melanoma, in the assay with EKVX NSCLC, with A498 renal, in the assay on MOLT-4 leukemia and in the assay with IGROV1 ovarian was > 100 µM throughout. Also, the TGI in the assay with CCRF-CEM leukemia and in the assay on SK-OV-3 ovarian was > 100 µM throughout.

Regarding `CN1COCN=C1NC#N`, the TGI in the assay with RPMI-8226 leukemia, in the assay with M14 melanoma, with EKVX NSCLC, with A498 renal, in the assay with MOLT-4 leukemia and in the assay with IGROV1 ovarian was > 100 µM each time. For the same compound, the TGI with CCRF-CEM leukemia, in the assay on SK-OV-3 ovarian and in the assay on HT29 colon was > 100 µM throughout.

For the compound `c1ccc(C2N=C(c3ccccn3)C(c3ccccn3)=NC2c2ccccc2)cc1` (stereo not given), the concentration for total growth inhibition (TGI) in the assay on RPMI-8226 leukemia, in the assay on M14 melanoma, with EKVX NSCLC, with A498 renal, in the assay with MOLT-4 leukemia and with IGROV1 ovarian was > 100 µM throughout. Further, the TGI with CCRF-CEM leukemia, in the assay on SK-OV-3 ovarian and in the assay on HT29 colon was > 100 µM in each case.

As for `NCCCNCCSP(=O)(O)O`, the TGI in the assay with RPMI-8226 leukemia was > 750 µM; with EKVX NSCLC it was > 750 µM; in the assay on A498 renal, > 75 µM; with MOLT-4 leukemia it was > 750 µM; in the assay on IGROV1 ovarian, > 750 µM; with CCRF-CEM leukemia, > 750 µM. Also, the concentration for total growth inhibition (TGI) in the assay on SK-OV-3 ovarian and in the assay on HT29 colon was > 750 µM in each case.

As to `C(=Nc1ccc(-c2nc3ccccc3s2)cc1)c1cccs1`, the TGI in the assay with RPMI-8226 leukemia was > 100 µM; in the assay with M14 melanoma, > 100 µM; in the assay on EKVX NSCLC, > 100 µM; in the assay with A498 renal, 76.6 µM; with MOLT-4 leukemia, > 100 µM; in the assay on IGROV1 ovarian, > 100 µM. The values for the TGI in the assay with CCRF-CEM leukemia, in the assay on SK-OV-3 ovarian and in the assay on HT29 colon were 3.76 µM, > 100 µM and > 100 µM, respectively.

On to `CC1(C)CC(=O)C2=C(C1)NC(=S)C(C#N)C2c1ccccc1` (stereo not given), for which the TGI in the assay on M14 melanoma, with EKVX NSCLC, in the assay on IGROV1 ovarian, with CCRF-CEM leukemia, in the assay on SK-OV-3 ovarian and in the assay with MDA-MB-231 breast was > 100 µM in each case. Besides, the TGI in the assay with HT29 colon is > 100 µM.

On to `O=C(Oc1cncc(Cl)c1)c1cc2ccccc2sc1=O`, for which the TGI in the assay on RPMI-8226 leukemia is > 100 µM; in the assay on M14 melanoma it was > 100 µM; with EKVX NSCLC it was > 100 µM; with MOLT-4 leukemia, 90 µM; in the assay with IGROV1 ovarian it was > 100 µM; with SK-OV-3 ovarian, > 100 µM. The TGI in the assay on MDA-MB-231 breast and with HT29 colon was > 100 µM each time.

Take `Cc1ccc(N2Cc3c(ccc4ccccc34)OP2(=S)N2CCCC2)cc1` (stereo not given): the TGI in the assay on RPMI-8226 leukemia, in the assay on EKVX NSCLC, in the assay with A498 renal, in the assay on MOLT-4 leukemia, in the assay on IGROV1 ovarian and in the assay with CCRF-CEM leukemia was > 100 µM throughout. In addition, the TGI with SK-OV-3 ovarian and with HT29 colon was > 100 µM in each case.

In the case of `O=c1cc(-c2ccccc2)oc2cc(OCCCCCCCCCCOc3ccc4c(=O)cc(-c5ccccc5)oc4c3)ccc12`, the total growth inhibition concentration (TGI) in the assay with RPMI-8226 leukemia, in the assay with M14 melanoma, with EKVX NSCLC, with MOLT-4 leukemia, in the assay with IGROV1 ovarian and in the assay with CCRF-CEM leukemia was > 100 µM each time. In addition, the TGI with SK-OV-3 ovarian and in the assay on HT29 colon was > 100 µM throughout.

As to `COC1CCC(CO)OO1` (stereo not given), the concentration for total growth inhibition (TGI) in the assay with RPMI-8226 leukemia was 93.1 µM; with M14 melanoma, > 100 µM; in the assay on A498 renal, 72.2 µM; in the assay with MOLT-4 leukemia it was > 100 µM; in the assay on IGROV1 ovarian, 75.8 µM; in the assay on CCRF-CEM leukemia it was > 100 µM. Further, the TGI with SK-OV-3 ovarian and in the assay with HT29 colon was > 100 µM each time.
